# Experiments:
# SH-SY5Y cell lines = assay: Proliferation of neurons (SH-SY5Y, Parkinson's disease cell model), EZ-cytox; type: cell-based, human; conditions: 5 days, FIG. 4
# Protocol: A medium containing DMEM/F12 (Hyclone), 10% FBS (Hyclone), and 1% penicillin-streptomycin (Hyclone) was used, and the medium was replaced every two days after seeding on a T75 plate. Subculture was performed when the cell density was 80-90%.
# Then, to determine the neuronal proliferation effect, the subcultured SH-SY5Y cells were seeded in 96 wells at 5×10^3 cells/well. After 1 day, the medium was replaced with a 5% FBS ratio, and the cells were treated with the compound of formula (1a-1) at concentrations serially diluted 2-fold from 500 nM to 15.6 nM and cultured for 5 days. The medium was replaced with 10% FBS containing the drug every other day. The culture medium with 10% FBS was used as a control. After 5 days, the amount of living cells was measured at 450 nm absorbance using EZ-cytox (DoGen) to compare the cell viability.
# C57BL/6 mice = assay: Survival in sepsis induced by cecal ligation and puncture (CLP); type: in vivo, mouse; conditions: 100 ng/mouse (5 μg/kg) i.v. at 6 and 16 hours after CLP; FIG. 7
# Protocol: C57BL/6 mice aged 7-8 weeks were purchased from Jabio (Suwon, Gyeonggi-do) and sepsis was induced by cecal ligation and puncture (CLP).
# Specifically, after anesthesia using 150 mg/kg of ketamine and 17.5 mg/kg of rompun, an abdominal incision of 1-2 cm was made to expose the cecum to induce sepsis. The cecum was ligated with 6-0 silk sutures at the distal end of the ileocecal valve, and a puncture was made with an 18-gauge needle. The perforated cecum was gently squeezed to push out 1-2 cm of feces, and the cecum was then retracted back into the abdominal cavity. The abdomen was then closed and pre-warmed normal saline (2.5 mL/100 g body weight) was injected into the mouse abdominal cavity immediately after the procedure. 6 and 16 hours after CLP treatment, the compound of formula (1a-1) was dissolved in phosphate buffered saline (PBS) and injected intravenously at 100 ng/mouse (5 μg/kg), and survival was examined for 10 days. […] In addition, as a drug-negative control, survival was examined in mice that received only PBS after CLP treatment.
# For comparison, we also examined the survival of a control group treated with fingolimod (FTY720), a known S1P modulator, instead of the compound of formula (1a-1) under the same conditions.
# lungs of mice = assay: Acute respiratory distress syndrome induced by CLP: lung histology, lung injury score, wet-to-dry weight ratio; type: in vivo, mouse; conditions: treated at 6 and 16 hours after CLP, lungs harvested at 18 hours
# Protocol: CLP induces pulmonary edema due to increased inflammation and disruption of the vascular barrier, resulting in acute respiratory distress syndrome (ARDS). To determine the effect on ARDS, the compound of formula (1a-1) was treated at 6 and 16 hours after CLP treatment in the same manner as in Experimental Example 7 above, the lungs of mice were harvested at 18 hours for histological analysis, and the wet-to-dry weight ratio of the lungs was obtained. For comparison, mice without CLP treatment served as a control group.
# For histologic analysis, the harvested lungs were fixed in 10% paraformaldehyde, infiltrated with paraffin, sectioned into 5 μm-thick tissues, and then de-paraffinized with xylene. Sectioned tissues were mounted on slides, stained with H&E, and observed under an optical microscope. In addition, the lung tissue damage was evaluated by histological score to obtain the lung injury score (LIS) for each group.
# To calculate the wet-to-dry weight ratio, lung organs were harvested 18 hours after CLP treatment, and the wet weight was measured immediately after harvesting, and the dry weight was measured after drying in an oven at 60 °C for 48 hours to calculate the wet-to-dry weight ratio. The wet-to-dry weight ratio is used as an indicator of organ edema formation.
# [1] = test system: MYSEC (murine yolk sac endothelial cell) cell lines; assay: In vitro permeability of MYSEC cell line (LPS, trans well, HRP); type: cell-based; conditions: FIG. 11A
# Protocol: Permeability was measured by an in vitro method using cell culture and in vivo method using Evans blue dye. To increase permeability, LPS was used in the in vitro method and CLP treatment was used in the in vivo method.
# To measure permeability by an in vitro method, MYSEC (murine yolk sac endothelial cell) cell lines were used. MYSEC cell lines were placed in the top chamber of a trans well at 2.5×10^5 cells/well and treated with 300 ng of lipopolysaccharide (LPS) derived from Gram-negative bacteria in the presence of the compound of formula (1a-1) for 24 hours. The medium in the top chamber was replaced with 300 μl of serum-free medium containing 5 μl of streptoavidin-HRP. After 5 minutes, 20 μl of the medium in the lower chamber was taken and the activity of HRP was measured as absorbance at 450 nm.
# To determine the mechanism by which the compound of formula (1a-1) improves permeability, the same experiment was performed by knocking down the SIRT1 protein in the MYSEC cell line.
smiles,measurement,setting,value
"CCCCCCCCCCCCCC[C@H]1OP(=O)(O)O[C@H]1[C@@H](N)CO.Cl [formula (1a-1), (4S,5R)-4-((S)-1-amino-2-hydroxyethyl)-2-hydroxy-5-tetradecyl-1,3,2-dioxaphosphoran-2-oxide hydrochloride]",proliferation of nerve cells,SH-SY5Y cell lines; 15.6 nM to 500 nM,proliferation of nerve cells increases with increasing concentrations
same,concentration of maximum proliferative potency,SH-SY5Y cell lines,~100 nM
same,deaths after 10 days,C57BL/6 mice,no deaths
same,survival for 10 days,C57BL/6 mice,more than 80%
same,"lung tissue damage (histology, H&E)",lungs of mice; FIG. 9A,the lung tissue is almost restored to normal
same,lung injury score (LIS),lungs of mice; FIG. 9B,almost restores the lung injury score to normal
same,wet-to-dry weight ratio of the lung,lungs of mice; FIG. 9C,restores the wet-to-dry weight ratio of the lung to normal
same,"permeability, SIRT1 knockdown","[1]; MYSEC with knockdown of SIRT1 protein, LPS",does not show the effect
same,permeability,"[1]; MYSEC, 300 ng LPS, 24 hours",restores the LPS-induced increased permeability to normal
